Laboratory results taken from a melting point compilation (Tetko et al.; mined from patent text by program, amines drawn as free bases though some values may be those of a salt).

| melting point [°C] | Structure (SMILES) |
| --- | --- |
| 106 to 109 | Cc1c(-c2ccc(C(F)(F)F)cc2)n(Cc2ccc(OCCBr)cc2)c2ccc(OCc3ccccc3)cc12 |
| 170 to 172 | C[C@H]1N[C@H](c2ccc(Br)cc2)[C@@H]2C(=O)N(Cc3ccccc3)C(=O)[C@@H]21 (racemic) |
| 118 to 120 | Cc1[nH]cnc1CCNC(=NCCCOc1cccc(CN2CCCCC2)c1)NC(=O)c1ccccc1 |
| > 250 | CCOC(=O)CC[C@H](NC(=O)c1ccc(C#Cc2cnc3nc(NC(=O)C(C)(C)C)nc(O)c3c2)cc1)C(=O)OCC |
| 92 to 95 | CC(C)(C)C(=O)Oc1ccc(-c2nnn(CCO)n2)cc1 |
| 74 to 76 | CC12CC(C#N)(CC1=O)C(C)(C)O2 (stereo not drawn) |
| 276 | CC(=O)Nc1nc(CCc2ccc(NC(NC(=O)OC(C)(C)C)NC(=O)OC(C)(C)C)cc2)cs1 |
| 272 | Nc1ncc(Br)cc1C(=O)O |
| 193 to 198 | COc1ccc2nnc(-c3ncc([N+](=O)[O-])n3C)n2n1 |
| 89 | CCOc1ccc2[nH]c(=O)n(CCN(C(C)C)C(C)C)c2c1 |
| 158 to 163 | OCCCNc1cc(-c2ccnc(Nc3cccc(C(F)(F)F)c3)n2)ccn1 |
| 135 to 136 | CCC(=O)c1c(O)cccc1O |
| 126 to 127 | CCOC(=O)C=Cc1ccc(NC(C)=O)cc1 |
| 162 to 165 | Cc1nc2cc(Cl)ccc2c(=O)n1C |
| 250 to 252 | Cc1ccc(-c2[nH]nc3c2Cc2ccccc2-3)cc1 |
| 210 to 213 | CCNCC1CN(c2c(F)cc3c(=O)c(C(=O)O)cn(C4CC4)c3c2F)CCO1 (stereo not drawn) |
| 170 | Cc1ccc(-c2nc3ccccc3s2)nc1 |
| 146 to 147 | COc1ccc(C(=Cc2nnnn2C)c2ccc(OC)cc2)cc1 |
| 115 to 116 | O=C(Nc1ccc(Cl)cc1[N+](=O)[O-])NC1CCCCC1 |
| 95 to 100 | COc1cc(N)ccc1-c1nc(-c2cccnc2)c(C)[nH]1 |
| 133 to 135 | COc1ccc(C2CCN(c3c(C)c(C)c4c(c3C)C(O)(c3ccc(C)cc3)C(C)(C)O4)CC2)cc1OC (stereo not drawn) |
| 162 to 164 | Cn1cc2c3c(ccc2n1)CCC3=O |

| melting point [°C] | Structure (SMILES) |
| --- | --- |
| 140 to 141 | CCc1nc2c(C)cc(C)nc2n1Cc1ccc(C(c2ccc(C)cc2)C(C(=O)O)C(=O)O)cc1 (stereo not drawn) |
| 120 to 122 | COc1ccc2nc(-c3cccc(F)c3)cc(OP(=O)(O)O)c2c1OP(=O)(O)O |
| 246 to 248 | CC1NC(=O)NN=C1c1ccc(NC(=O)CO)cc1 (stereo not drawn) |
| 167 to 169 | COC(=O)C(=Cc1c[nH]c2cc(C)ccc12)[N+](=O)[O-] |
| 51 | C=CC(=O)OCCCC#Cc1ccc(C(F)(F)Oc2ccc(OC(F)(F)c3ccc(C#CCCCOC(=O)C=C)cc3)c(C)c2)cc1 |
| 160 to 163 | NC1=C(C(=O)c2ccc(Br)s2)C2=C(CCCC2)S1=O (stereo not drawn) |
| 32 to 34 | CCOC(=O)C(C)(C)CCCCOc1cc(C)c(N)c(C)c1 |
| 108 to 110 | CC(=O)c1sc(N2CCN(CCCC(F)(F)F)C2=O)nc1C |
| 168 to 170 | COc1cc2ncnc(N3CCN(C(=O)NCc4cccs4)CC3)c2cc1OC |
| 204 to 207 | CC(CC(=O)Nc1c(Cl)ccc2nc(N3CCC(N)C3)ccc12)c1ccccc1 (stereo not drawn) |
| 244 to 246 | COC(=O)c1sc2c(c1N)c1ccccc1c(=O)n2-c1ccccc1Cl |
| > 300 | CN1CCc2c(-c3ccc([N+](=O)[O-])cc3)cc3c(c2C1)NC(=O)C3=O |
| 147 to 150 | CN(C)c1cc(C(O)c2ccccc2)c([N+](=O)[O-])cc1[N+](=O)[O-] (stereo not drawn) |
| 131 to 133 | O=C(Cc1ccccc1)Cc1ccc(Cl)c(Cl)c1 |
| > 300 | COc1ccc(-c2[nH]nc3c2C(=O)c2c(NC(=O)CN4CCC(C(N)=O)CC4)cccc2-3)cc1 |
| 194 to 195 | Nc1cccc(CN2CCC(NC(=O)NC(=O)c3ccccc3)CC2)c1 |
| 78 to 80 | O=C(NCCCCCCCCF)N1CCC(Nc2ccc(CCNC[C@H](O)COc3ccc(O)cc3)cc2)CC1 |
| 110 to 112 | N#CCC1CCN(c2ccc(N3C[C@H](CO)OC3=O)cc2)CC1 |
| 135 to 136 | O=C(c1cccc([N+](=O)[O-])c1)c1ccc(Oc2ccccc2)c([N+](=O)[O-])c1 |
| 80 to 87 | CN(C(=O)N1Cc2nc(Cc3ccccc3)n(Cc3ccccc3)c2C[C@H]1CO)c1ccccc1 |
| 251 | COc1ccc(C(=O)C2=C(O)C(=O)N(c3nnc(C)s3)C2c2ccc(O)cc2)cc1 (stereo not drawn) |
| 132 | c1ccc(C2CN=C3Sc4ccccc4N32)cc1 (stereo not drawn) |

| melting point [°C] | Structure (SMILES) |
| --- | --- |
| 137 to 138 | NC(=O)CCNc1cc(Oc2ccc(C(F)(F)F)cc2Cl)ccc1[N+](=O)[O-] |
| 127 to 130 | Cc1c(-c2ccc(O)cc2)n(C(=O)c2ccc(OCCN3CCCCC3)cc2)c2ccc(O)cc12 |
| 258 | O=C(O)c1c(-c2ccccc2)c(=O)[nH]c2cc(Cl)ccc12 |
| 214 to 217 | CON1C=C2N=NC3=C(N2C1)N(c1ccccc1)CC(C)=C3 |
| 189 to 190 | COc1ccc2c(c1)Sc1c(cc(OC)c(OC(C)=O)c1Br)N2C |
| 102 to 104 | CC(C)(C)NC(=O)[C@@H]1[C@@H](Cl)CCN1C(=O)[C@@H](O)[C@H](Cc1ccccc1)NC(=O)[C@H](CC(N)=O)NC(=O)OCc1ccccc1 |
| 158 to 160 | COc1ccc(N2CCCn3c2nc2c(Cl)ccc(C(OCC(F)(F)F)C4CC4)c23)c(C)n1 (stereo not drawn) |
| 194 | CCOC(=O)c1cnn(C)c1C(=O)Nc1ccc2nc(N(C)C)nn2c1 |
| 155 to 157 | CN(C(=N)N)c1nccc(Oc2ccc(NC(=O)c3cc(F)cc(N4CCOCC4)c3)c3ccccc23)n1 |
| 243 to 255 | CC(=O)Nc1cc2c(Nc3ccc(Sc4nccn4C)c(Cl)c3)c(C#N)cnc2cc1N1CCC(N2CCCC2)CC1 |
| 218 | CCCCCNC(=O)Nc1ccc(N(C)C)cc1C(=O)NCC1CCN(C(c2ccccc2)c2ccccc2)CC1 |
| 148 to 149 | COc1cccc(-n2nc(Sc3ccc(Cl)cc3)c(C)c(C#N)c2=O)c1 |
| 97 | C=CCOC(=O)c1c(Cl)c(OC)cc(O[Si](C)(C)C(C)(C)C(C)C)c1C=O |
| > 210 | CCOc1ccnc2[nH]cc(C(C)=O)c12 |
| 103 to 106 | CC(C)(CCl)C(=O)N(O)Cc1ccc(Cl)cc1Cl |
| 82 to 84 | CCOC(=O)CCCCCC(=O)NCc1cccc2c1C(=O)N(C1CCC(=O)NC1=O)C2=O (stereo not drawn) |
| 212 to 215 | CCC(=O)Oc1ccc2nc(NC(=O)Nc3ccccc3)sc2c1 |
| 46 to 48 | CCOP(=O)(CC(=O)N(CC)c1cn(-c2cccnc2)nc1Cl)OCC |
| 168 to 169 | CCCN(CCC)c1nsc(NC(=O)NC)c1C(N)=O |
| 221 to 222 | Cc1ccc(CC2CCN(C(=O)C(=O)Nc3ccc4[nH]c(=O)sc4c3)CC2)cc1 |
| 123 to 125 | CC(C)(C)OC(=O)N[C@@H](CC1CCCCC1)[C@@H]1C[C@@H](C(C)(C)O)C(=O)O1 |

| Structure (SMILES) | melting point [°C] |
| --- | --- |
| CN1CCN(c2cnc([N+](=O)[O-])c(Cl)n2)CC1 | 50 |
| OC(c1cccc(F)c1)(c1cccc(F)c1)C1CCNCC1 | 117 to 118 |
| CCCCCCC(C)(C)c1cc(O)c2c(c1)OC(C)(C)CC2C(=O)O (stereo not drawn) | 147 to 148 |
